Assay results taken from US20080039422A1, “Vitamin B12-Containing Compositions and Methods of Use” (Transition Therapeutics Inc., priority 2004, published 2008).

How the values were obtained:
[1] = Effects of temperature of heating solution on long-term stability; type: physicochemical
Protocol: To study the effect of temperature, in some experiments, the solutions were heated to only 37° C. for 15 minutes (unless otherwise noted, the solutions were prepared as described above: by heating them to 60° C. for two hours, with additional mixing by vortexing carried out for 5-10 seconds every 5-10 minutes).
The effect of heating the solutions to different temperatures on long-term stability was tested. Solutions challenged with 50 or 75 mg/ml CN-Cbl containing 20% ethanol and 20-40% propylene glycol that were prepared at 60° C. and 37° C. were compared. The concentrations of CN-Cbl in solutions prepared at 60° C. were measured after three days, and the concentrations of CN-Cbl in solutions prepared at 37° C. were measured after two weeks. No significant difference was found in the concentrations of CN-Cbl in these solutions when the challenge amount was 50 mg/ml and only a slight difference when the challenge amount was 75 mg/ml. Solutions challenged with either 50 or 75 mg/ml CN-Cbl and containing ethanol and/or propylene glycol were heated to 37° C. (in which case, the concentration of CN-Cbl was measured after two weeks incubation at room temperature) or 60° C. (in which case, the concentration of CN-Cbl was measured after three days incubation at room temperature). Additional information regarding stability was obtained in the experiments described below.

[2] = Solubility study (saturated solubility of CN-Cbl, 25°C, 16 hours, UV); type: physicochemical
From the text: During the solubility study the following were investigated: • cosolvents (mixtures of ethanol and propylene glycol) • in-situ salt formers • surfactants • pH effects • in-situ salt formers and cosolvents Solubility Study Method
Results of CN-Cbl Solubility in Water and Determination of Equilibrium Time

[3] = Ref. FD4068 29A, buffer Sodium citrate, citric acid, Initial pH 2.64
[4] = Ref. FD4068 30A, buffer Sodium citrate, citric acid, Initial pH 4.75
[5] = Ref. FD4068 30B, buffer Disodium hydrogen phosphate, sodium dihydrogen phosphate, Initial pH 7.03
[6] = Ref. FD4068 31A, buffer Diethanolamine, hydrochloric acid, Initial pH 8.93

cyanocobalamin [CN-Cbl]
Conc of CN-Cbl ([1]; heated to 37 degrees, After 2 weeks at Room Temperature, challenge 50 mg/mL, ethanol 20%, PG 20%): 47.08 mg/mL | Conc of CN-Cbl ([1]; heated to 37 degrees, After 2 weeks at Room Temperature, challenge 50 mg/mL, ethanol 20%, PG 30%): 49.78 mg/mL | Conc of CN-Cbl ([1]; heated to 37 degrees, After 2 weeks at Room Temperature, challenge 50 mg/mL, ethanol 20%, PG 40%): 49.87 mg/mL | Conc of CN-Cbl ([1]; heated to 37 degrees, After 2 weeks at Room Temperature, challenge 75 mg/mL, ethanol 20%, PG 20%): 38.39 mg/mL | Conc of CN-Cbl ([1]; heated to 37 degrees, After 2 weeks at Room Temperature, challenge 75 mg/mL, ethanol 20%, PG 30%): 59.62 mg/mL | Conc of CN-Cbl ([1]; heated to 37 degrees, After 2 weeks at Room Temperature, challenge 75 mg/mL, ethanol 20%, PG 40%): 75.82 mg/mL | Conc of CN-Cbl ([1]; heated to 60 degrees, After 3 days at Room Temperature, challenge 50 mg/mL, ethanol 0%, PG 0%): 12.85 mg/mL | Conc of CN-Cbl ([1]; heated to 60 degrees, After 3 days at Room Temperature, challenge 50 mg/mL, ethanol 20%, PG 0%): 24.41 mg/mL | Conc of CN-Cbl ([1]; heated to 60 degrees, After 3 days at Room Temperature, challenge 50 mg/mL, ethanol 20%, PG 10%): 32.32 mg/mL | Conc of CN-Cbl ([1]; heated to 60 degrees, After 3 days at Room Temperature, challenge 50 mg/mL, ethanol 20%, PG 20%): 49.87 mg/mL | Conc of CN-Cbl ([1]; heated to 60 degrees, After 3 days at Room Temperature, challenge 50 mg/mL, ethanol 20%, PG 30%): 48.33 mg/mL | Conc of CN-Cbl ([1]; heated to 60 degrees, After 3 days at Room Temperature, challenge 50 mg/mL, ethanol 20%, PG 40%): 50.36 mg/mL | Conc of CN-Cbl ([1]; heated to 60 degrees, After 3 days at Room Temperature, challenge 75 mg/mL, ethanol 0%, PG 0%): 14.01 mg/mL | Conc of CN-Cbl ([1]; heated to 60 degrees, After 3 days at Room Temperature, challenge 75 mg/mL, ethanol 20%, PG 0%): 24.41 mg/mL | Conc of CN-Cbl ([1]; heated to 60 degrees, After 3 days at Room Temperature, challenge 75 mg/mL, ethanol 20%, PG 10%): 30.10 mg/mL | Conc of CN-Cbl ([1]; heated to 60 degrees, After 3 days at Room Temperature, challenge 75 mg/mL, ethanol 20%, PG 20%): 60.78 mg/mL | Conc of CN-Cbl ([1]; heated to 60 degrees, After 3 days at Room Temperature, challenge 75 mg/mL, ethanol 20%, PG 30%): 76.60 mg/mL | Conc of CN-Cbl ([1]; heated to 60 degrees, After 3 days at Room Temperature, challenge 75 mg/mL, ethanol 20%, PG 40%): 74.28 mg/mL | Saturated Solubility ([2]; 0.1 M Choline (12.12 mg/ml), Initial pH 12.54): 29.5 mg/mL | Saturated Solubility ([2]; 0.1 M Diethanolamine (10.51 mg/ml), Initial pH 10.80): 18.1 mg/mL | Saturated Solubility ([2]; 0.1 M L-arginine (17.42 mg/ml), Initial pH 10.88): 18.2 mg/mL | Saturated Solubility ([2]; 0.1 M L-lysine (16.42 mg/ml), Initial pH 9.60): 16.3 mg/mL | Saturated Solubility ([2]; 0.1 M Meglumine (19.52 mg/ml), Initial pH 11.00): 18.0 mg/mL | Saturated Solubility ([2]; 0.1 M Triethanolamine (14.92 mg/ml), Initial pH 10.13): 18.6 mg/mL | Saturated Solubility ([2]; 0.1 M Triethylamine (10.12 mg/ml), Initial pH 11.64): 24.9 mg/mL | Saturated Solubility ([2]; Ref. FD4068 14A, Propylene glycol 30% v/v, Ethanol 5% v/v): 36.6 mg/mL | Saturated Solubility ([2]; Ref. FD4068 15A, Propylene glycol 32% v/v, Ethanol 5% v/v): 39.8 mg/mL | Saturated Solubility ([2]; Ref. FD4068 15B, Propylene glycol 34% v/v, Ethanol 5% v/v): 39.1 mg/mL | Saturated Solubility ([2]; Ref. FD4068 15C, Propylene glycol 36% v/v, Ethanol 5% v/v): 41.8 mg/mL | Saturated Solubility ([2]; Ref. FD4068 16A, Propylene glycol 38% v/v, Ethanol 5% v/v): 45.5 mg/mL | Saturated Solubility ([2]; Ref. FD4068 16B, Propylene glycol 40% v/v, Ethanol 5% v/v): 48.1 mg/mL | Saturated Solubility ([2]; Ref. FD4068 16C, Propylene glycol 30% v/v, Ethanol 10% v/v): 45.6 mg/mL | Saturated Solubility ([2]; Ref. FD4068 16D, Propylene glycol 32% v/v, Ethanol 10% v/v): 45.8 mg/mL | Saturated Solubility ([2]; Ref. FD4068 17A, Propylene glycol 34% v/v, Ethanol 10% v/v): 47.8 mg/mL | Saturated Solubility ([2]; Ref. FD4068 17B, Propylene glycol 36% v/v, Ethanol 10% v/v): 51.0 mg/mL | Saturated Solubility ([2]; Ref. FD4068 17C, Propylene glycol 38% v/v, Ethanol 10% v/v): 52.2 mg/mL | Saturated Solubility ([2]; Ref. FD4068 17D, Propylene glycol 40% v/v, Ethanol 10% v/v (no surfactant)): 53.8 mg/mL | Saturated Solubility ([2]; Ref. FD4068 26A, 5% w/v Polysorbate 80, 40% v/v propylene glycol, 10% v/v ethanol): 49.0 mg/mL | Saturated Solubility ([2]; Ref. FD4068 26B, 5% w/v Polysorbate 20, 40% v/v propylene glycol, 10% v/v ethanol): 46.5 mg/mL | Saturated Solubility ([2]; Ref. FD4068 26C, 5% w/v Paloxamer 188, 40% v/v propylene glycol, 10% v/v ethanol): 45.1 mg/mL | Saturated Solubility ([2]; Ref. FD4068 27A, 5% w/v Cremophor RH40, 40% v/v propylene glycol, 10% v/v ethanol): 47.1 mg/mL | Saturated Solubility [2, 3]: 15.3 mg/mL | pH of CN-Cbl Solution [2, 3]: 2.89 | Saturated Solubility [2, 4]: 15.0 mg/mL | pH of CN-Cbl Solution [2, 4]: 4.83 | Saturated Solubility [2, 5]: 13.6 mg/mL | pH of CN-Cbl Solution [2, 5]: 7.02 | Saturated Solubility [2, 6]: 17.5 mg/mL | pH of CN-Cbl Solution [2, 6]: 8.80
